Patent publication US6737383B1, “Herbicidal oxadiazolidines” (priority 1999, dated 2004)

Assays:
rice = assay: Test B flood test rice; format: in vivo, Oryza sativa
Method in brief: (§1)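 Flood test on plants grown to the 2-leaf stage; treated plants kept in greenhouse twelve to sixteen days, then visually rated against controls on a 0 (no effect) to 10 (complete control) scale.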

smallflower flatsedge = assay: Test B flood test smallflower flatsedge; format: in vivo, Cyperus difformis
Method in brief: as §1

giant foxtail = assay: Test B pre/postemergence giant foxtail; format: in vivo, Setaria faberii
Method in brief: (§2)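 Herbicidal effect was estimated by eye on a ten-point control scale after plants spent twelve to sixteen days in a greenhouse following soil or foliar treatment. Foliar sprays targeted plants at one to four leaves; all doses were formulated in a non-phytotoxic solvent with surfactant.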

pigweed = assay: Test B pre/postemergence pigweed; format: in vivo, Amaranthus retroflexus
Method in brief: as §2

wheat = assay: Test B pre/postemergence wheat; format: in vivo, Triticum aestivum
Method in brief: as §2

soybean = assay: Test B pre/postemergence soybean; format: in vivo, Glycine max
Method in brief: as §2

cocklebur = assay: Test B pre/postemergence cocklebur; format: in vivo, Xanthium strumarium
Method in brief: as §2

velvetleaf = assay: Test B pre/postemergence velvetleaf; format: in vivo, Abutilon theophrasti
Method in brief: as §2

bedstraw = assay: Test B pre/postemergence bedstraw; format: in vivo, Galium aparine
Method in brief: as §2

crabgrass = assay: Test B pre/postemergence crabgrass; format: in vivo, Digitaria sanguinalis
Method in brief: as §2

morningglory = assay: Test B pre/postemergence morningglory; format: in vivo, Ipomoea hederacea
Method in brief: as §2

purple nutsedge = assay: Test B pre/postemergence purple nutsedge; format: in vivo, Cyperus rotundus
Method in brief: as §2

wild oat = assay: Test B pre/postemergence wild oat; format: in vivo, Avena fatua
Method in brief: as §2

rape = assay: Test B pre/postemergence rape; format: in vivo, Brassica napus
Method in brief: as §2

duck salad = assay: Test B flood test duck salad; format: in vivo, Heteranthera limosa
Method in brief: as §1

corn = assay: Test B pre/postemergence corn; format: in vivo, Zea mays
Method in brief: as §2

[1] = Postemergence, Rate 62 g/ha, scale 0 to 10, 0 is no effect, 10 is complete control
[2] = Rate 125 g/ha, Postemergence section (flood test species), scale 0 to 10, 0 no effect, 10 complete control
[3] = Rate 500 g/ha, Postemergence section of Table B, 0 to 10 scale (0 no effect, 10 complete control)
[4] = flood test, listed under Postemergence, Rate 250 g/ha, scale 0 to 10, 0 no effect, 10 complete control
[5] = Postemergence, Rate 250 g/ha, scale 0 to 10, 0 no effect, 10 complete control
[6] = Preemergence, Rate 31 g/ha, visual rating, scale 0 to 10 (0 no effect, 10 complete control)
[7] = Preemergence, Rate 62 g/ha, scale 0 to 10, 0 is no effect, 10 is complete control
[8] = Preemergence, Rate 125 g/ha, scale 0 to 10 (0 no effect, 10 complete control)
[9] = Preemergence, Rate 250 g/ha, scale of 0 to 10 where 0 is no effect and 10 is complete control
[10] = Rate 31 g/ha, Postemergence, scale 0 to 10
[11] = Rate 125 g/ha, Postemergence, scale 0 to 10, 0 no effect, 10 complete control

SMILES: COc1ccc(-n2c(=O)on(C(=O)N(c3ccc(F)cc3)C(C)C)c2=O)c(OC)c1 [Compound 33]
- Rice plant response rating (rice; [1]): 0
- Rice plant response rating (rice; [2]): 0
- Rice plant response rating (rice; [3]): 4
- Rice plant response rating (rice; [4]): 2
- S. Flatsedge plant response rating (smallflower flatsedge; [1]): 0
- S. Flatsedge plant response rating (smallflower flatsedge; [2]): 0
- S. Flatsedge plant response rating (smallflower flatsedge; [4]): 2
- Giant foxtail plant response rating (giant foxtail; [1]): 0
- Giant foxtail plant response rating (giant foxtail; [5]): 3
- Giant foxtail plant response rating (giant foxtail; [6]): 3
- Plant response rating, Giant foxtail (giant foxtail; [7]): 4
- Plant response rating, Giant foxtail (giant foxtail; [8]): 6
- Plant response rating, Giant foxtail (giant foxtail; [9]): 9
- Giant foxtail plant response rating (giant foxtail; [10]): 0
- Giant foxtail plant response rating (giant foxtail; [11]): 1
- Redroot pigweed plant response rating (pigweed; [1]): 0
- Redroot pigweed plant response rating (pigweed; [5]): 3
- Redroot pigweed plant response rating (pigweed; [6]): 0
- Plant response rating, Redroot pigweed (pigweed; [7]): 0
- Plant response rating, Redroot pigweed (pigweed; [8]): 0
- Plant response rating, Redroot pigweed (pigweed; [9]): 0
- Redroot pigweed plant response rating (pigweed; [10]): 0
- Redroot pigweed plant response rating (pigweed; [11]): 2
- Wheat plant response rating (wheat; [1]): 0
- Wheat plant response rating (wheat; [5]): 0
- Wheat plant response rating (wheat; [6]): 0
- Plant response rating, Wheat (wheat; [7]): 0
- Plant response rating, Wheat (wheat; [8]): 0
- Plant response rating, Wheat (wheat; [9]): 0
- Wheat plant response rating (wheat; [11]): 0
- Soybean plant response rating (soybean; [1]): 2
- Soybean plant response rating (soybean; [5]): 3
- Soybean plant response rating (soybean; [6]): 0
- Plant response rating, Soybean (soybean; [7]): 0
- Plant response rating, Soybean (soybean; [8]): 0
- Plant response rating, Soybean (soybean; [9]): 0
- Soybean plant response rating (soybean; [11]): 3
- Cocklebur plant response rating (cocklebur; [1]): 0
- Cocklebur plant response rating (cocklebur; [5]): 6
- Cocklebur plant response rating (cocklebur; [6]): 0
- Plant response rating, Cocklebur (cocklebur; [7]): 0
- Plant response rating, Cocklebur (cocklebur; [8]): 0
- Plant response rating, Cocklebur (cocklebur; [9]): 0
- Cocklebur plant response rating (cocklebur; [10]): 0
- Cocklebur plant response rating (cocklebur; [11]): 0
- Velvetleaf plant response rating (velvetleaf; [1]): 0
- Velvetleaf plant response rating (velvetleaf; [5]): 2
- Velvetleaf plant response rating (velvetleaf; [6]): 0
- Plant response rating, Velvetleaf (velvetleaf; [7]): 0
- Plant response rating, Velvetleaf (velvetleaf; [8]): 0
- Plant response rating, Velvetleaf (velvetleaf; [9]): 0
- Velvetleaf plant response rating (velvetleaf; [11]): 1
- Bedstraw plant response rating (bedstraw; [1]): 0
- Bedstraw plant response rating (bedstraw; [5]): 2
- Bedstraw plant response rating (bedstraw; [6]): 0
- Plant response rating, Bedstraw (bedstraw; [7]): 0
- Plant response rating, Bedstraw (bedstraw; [8]): 0
- Plant response rating, Bedstraw (bedstraw; [9]): 0
- Bedstraw plant response rating (bedstraw; [10]): 0
- Bedstraw plant response rating (bedstraw; [11]): 1
- Crabgrass plant response rating (crabgrass; [1]): 1
- Crabgrass plant response rating (crabgrass; [5]): 2
- Crabgrass plant response rating (crabgrass; [6]): 3
- Plant response rating, Crabgrass (crabgrass; [7]): 3
- Plant response rating, Crabgrass (crabgrass; [8]): 3
- Plant response rating, Crabgrass (crabgrass; [9]): 7
- Crabgrass plant response rating (crabgrass; [10]): 0
- Crabgrass plant response rating (crabgrass; [11]): 2
- Morningglory plant response rating (morningglory; [1]): 3
- Morningglory plant response rating (morningglory; [5]): 9
- Morningglory plant response rating (morningglory; [6]): 0
- Plant response rating, Morningglory (morningglory; [7]): 0
- Plant response rating, Morningglory (morningglory; [8]): 0
- Plant response rating, Morningglory (morningglory; [9]): 1
- Morningglory plant response rating (morningglory; [10]): 3
- Morningglory plant response rating (morningglory; [11]): 8
- Nutsedge plant response rating (purple nutsedge; [1]): 0
- Nutsedge plant response rating (purple nutsedge; [5]): 0
- Nutsedge plant response rating (purple nutsedge; [6]): 0
- Plant response rating, Nutsedge (purple nutsedge; [7]): 0
- Plant response rating, Nutsedge (purple nutsedge; [8]): 0
- Plant response rating, Nutsedge (purple nutsedge; [9]): 0
- Nutsedge plant response rating (purple nutsedge; [10]): 0
- Nutsedge plant response rating (purple nutsedge; [11]): 0
- Wild oats plant response rating (wild oat; [1]): 0
- Wild oats plant response rating (wild oat; [5]): 1
- Wild oats plant response rating (wild oat; [6]): 0
- Plant response rating, Wild oats (wild oat; [8]): 2
- Plant response rating, Wild oats (wild oat; [9]): 2
- Wild oats plant response rating (wild oat; [11]): 0
- Rape plant response rating (rape; [1]): 0
- Rape plant response rating (rape; [5]): 3
- Rape plant response rating (rape; [6]): 0
- Plant response rating, Rape (rape; [7]): 0
- Plant response rating, Rape (rape; [8]): 0
- Plant response rating, Rape (rape; [9]): 0
- Rape plant response rating (rape; [10]): 0
- Rape plant response rating (rape; [11]): 0
- Ducksalad plant response rating (duck salad; [1]): 0
- Ducksalad plant response rating (duck salad; [2]): 0
- Ducksalad plant response rating (duck salad; [3]): 0
- Ducksalad plant response rating (duck salad; [4]): 0
- Corn plant response rating (corn; [1]): 0
- Corn plant response rating (corn; [5]): 0
- Corn plant response rating (corn; [6]): 0
- Plant response rating, Corn (corn; [7]): 0
- Plant response rating, Corn (corn; [8]): 0
- Plant response rating, Corn (corn; [9]): 0
- Corn plant response rating (corn; [10]): 0
- Corn plant response rating (corn; [11]): 0
